# Source: patent US9751865B2, “Dihydro-hydantoin derivatives with herbicidal activity” (SYNGENTA PARTICIPATIONS AG, priority 2013, dated 2017)
# How the values were obtained:
# Assay type in all cases: in vivo
# [1] = tested on: Amaranthus retroflexus; assay: Post-emergence herbicidal activity, AMARE; set-up: key: 5=total damage to plant; 0=no damage to plant; conditions: application post-emergence, 1000 g/Ha, evaluated after 13 days, scale 0-5
# Experimental: (§1) Seeds of a variety of test species were sown in standard soil in pots. After 8 days cultivation (post-emergence) under controlled conditions in a glasshouse (at 24/16° C., day/night; 14 hours light; 65% humidity), the plants were sprayed with an aqueous spray solution derived from the formulation of the technical active ingredient in acetone/water (50:50) solution containing 0.5% Tween 20 (polyoxyethelyene sorbitan monolaurate, CAS RN 9005-64-5). The test plants were then grown in a glasshouse under controlled conditions (at 24/16° C., day/night; 14 hours light; 65% humidity) and watered twice daily. After 13 days, the test was evaluated (5=total damage to plant; 0=no damage to plant).
# [2] = tested on: Setaria faberi; assay: Pre-emergence herbicidal activity, SETFA; set-up: key: 5=total damage to plant; 0=no damage to plant; conditions: application pre-emergence, 1000 g/Ha, evaluated after 13 days, scale 0-5
# Experimental: as §1, with “After” for “After 8 days”, “for one day (pre-emergence)” for “(post-emergence)”
# [3] = tested on: Abutilon theophrasti; assay: Post-emergence herbicidal activity, ABUTH; set-up: key: 5=total damage to plant; 0=no damage to plant; conditions: application post-emergence, 1000 g/Ha, evaluated after 13 days, scale 0-5
# Experimental: as §1
# [4] = tested on: Alopecurus myosuroides; assay: Post-emergence herbicidal activity, ALOMY; set-up: key: 5=total damage to plant; 0=no damage to plant; conditions: application post-emergence, 1000 g/Ha, evaluated after 13 days, scale 0-5
# Experimental: as §1
# [5] = tested on: Zea mays; assay: Pre-emergence herbicidal activity, ZEAMX; set-up: key: 5=total damage to plant; 0=no damage to plant; conditions: application pre-emergence, 1000 g/Ha, evaluated after 13 days, scale 0-5
# Experimental: as §1, with “After” for “After 8 days”, “for one day (pre-emergence)” for “(post-emergence)”
# [6] = tested on: Echinochloa crus-galli; assay: Post-emergence herbicidal activity, ECHCG; set-up: key: 5=total damage to plant; 0=no damage to plant; conditions: application post-emergence, 1000 g/Ha, evaluated after 13 days, scale 0-5
# Experimental: as §1
# [7] = tested on: Setaria faberi; assay: Post-emergence herbicidal activity, SETFA; set-up: key: 5=total damage to plant; 0=no damage to plant; conditions: application post-emergence, 1000 g/Ha, evaluated after 13 days, scale 0-5
# Experimental: as §1
# [8] = tested on: Abutilon theophrasti; assay: Pre-emergence herbicidal activity, ABUTH; set-up: key: 5=total damage to plant; 0=no damage to plant; conditions: application pre-emergence, 1000 g/Ha, evaluated after 13 days, scale 0-5
# Experimental: as §1, with “After” for “After 8 days”, “for one day (pre-emergence)” for “(post-emergence)”
# [9] = tested on: Amaranthus retroflexus; assay: Pre-emergence herbicidal activity, AMARE; set-up: key: 5=total damage to plant; 0=no damage to plant; conditions: application pre-emergence, 1000 g/Ha, evaluated after 13 days, scale 0-5
# Experimental: as §1, with “After” for “After 8 days”, “for one day (pre-emergence)” for “(post-emergence)”
# [10] = tested on: Zea mays; assay: Post-emergence herbicidal activity, ZEAMX; set-up: key: 5=total damage to plant; 0=no damage to plant; conditions: application post-emergence, 1000 g/Ha, evaluated after 13 days, scale 0-5
# Experimental: as §1
# [11] = tested on: Alopecurus myosuroides; assay: Pre-emergence herbicidal activity, ALOMY; conditions: application pre-emergence, 1000 g/Ha, evaluated after 13 days, scale 0-5
# Experimental: as §1, with “After” for “After 8 days”, “for one day (pre-emergence)” for “(post-emergence)”
# [12] = tested on: Echinochloa crus-galli; assay: Pre-emergence herbicidal activity, ECHCG; set-up: key: 5=total damage to plant; 0=no damage to plant; conditions: application pre-emergence, 1000 g/Ha, evaluated after 13 days, scale 0-5
# Experimental: as §1, with “After” for “After 8 days”, “for one day (pre-emergence)” for “(post-emergence)”
SMILES,AMARE damage score [1],SETFA damage score [2],ABUTH damage score [3],ALOMY damage score [4],ZEAMX damage score [5],ECHCG damage score [6],SETFA damage score [7],ABUTH damage score [8],AMARE damage score [9],ZEAMX damage score [10],ALOMY damage score [11],ECHCG damage score [12]
CON1C(=O)N(c2cc3n(n2)CCC3(C)C)C(O)C1C (stereo not drawn) [Compound A1],5,4,5,4,3,5,5,5,5,5,4,5
"CC1C(O)N(c2cc(C(F)(F)F)n(C)n2)C(=O)N1C (stereo not drawn) [Compound A2, 4-hydroxy-1,5-dimethyl-3-[1-methyl-5-(trifluoromethyl)pyrazol-3-yl]imidazolidin-2-one]",5,4,5,5,4,5,5,5,5,4,4,4
CON1C(=O)N(c2cc(C(C)(C)C)n(C)n2)C(O)C1C (stereo not drawn) [Compound A3],5,4,5,5,3,5,5,5,5,4,4,4
"CON1C(=O)N(c2cc(C(F)(F)F)n(C)n2)C(O)C1C (stereo not drawn) [Compound A4, 4-hydroxy-1-methoxy-5-methyl-3-[1-methyl-5-(trifluoromethyl)pyrazol-3-yl]imidazolidin-2-one]",5,4,5,5,3,5,5,5,5,5,4,4
CN1CC(O)N(c2nn(C)c(C(C)(C)C)c2C#N)C1=O (stereo not drawn) [Compound A5],5,0,4,3,0,3,3,2,4,2,1,0
CC1C(O)N(c2nn(C)c(C(C)(C)C)c2C#N)C(=O)N1C (stereo not drawn) [Compound A6],5,2,5,4,1,4,5,5,2,2,1,2
CC1C(O)N(c2cc(C(C)(C)C)n(C)n2)C(=O)N1C (stereo not drawn) [Compound A7],5,5,5,4,2,5,5,4,5,4,4,4
"CCOC1C(O)N(c2cc(C(F)(F)F)n(C)n2)C(=O)N1C (stereo not drawn) [Compound A8, 5-ethoxy-4-hydroxy-1-methyl-3-[1-methyl-5-(trifluoromethyl)pyrazol-3-yl]imidazolidin-2-one]",5,4,5,5,2,5,5,5,5,4,4,5
CCOC1C(O)N(c2cc(C(C)(C)C)n(C)n2)C(=O)N1C (stereo not drawn) [Compound A10],5,4,5,5,2,5,5,5,5,5,4,5
"CN1C(=O)N(c2cc(C(F)(F)F)n(C)n2)C(O)C1O (stereo not drawn) [Compound A12, 4,5-dihydroxy-1-methyl-3-[1-methyl-5-(trifluoromethyl)pyrazol-3-yl]imidazolidin-2-one]",5,4,5,5,1,5,5,5,5,4,4,4
CN1CC(O)N(c2cc(C(F)(F)F)n(C)n2)C1=O (stereo not drawn) [Compound A13],5,4,5,5,2,5,5,5,5,4,4,5
CN1CC(O)N(c2cc3n(n2)CCC3(C)C)C1=O (stereo not drawn) [Compound A14],5,4,5,5,3,5,5,5,5,5,4,4
COC(C)(C)c1cc(N2C(=O)N(C)CC2O)nn1C (stereo not drawn) [Compound A18],5,4,5,,2,4,5,5,5,2,,4
CON1C(=O)N(c2cc(C(C)(C)OC)n(C)n2)C(O)C1C (stereo not drawn) [Compound A19],5,4,5,,2,5,5,5,5,3,,4
COC(C)(C)c1cc(N2C(=O)N(C)C(C)C2O)nn1C (stereo not drawn) [Compound A20],5,4,5,,2,5,4,5,5,3,,4
COCC1C(O)N(c2cc(C(C)(C)OC)n(C)n2)C(=O)N1C (stereo not drawn) [Compound A21],5,4,5,,2,3,4,5,5,2,,4
COCC1C(O)N(c2cc(C(C)(C)C)n(C)n2)C(=O)N1C (stereo not drawn) [Compound A22],5,1,5,,0,5,5,5,5,4,2,1
